Assays:
Assay in all cases: Screen Quest Fluo-8 No Wash Calcium Assay (Bz-ATP evoked Ca2+ influx, FLIPR)
Format in all cases: cell-based
P2X7 receptor [1] = target: T1, P2X7 receptor (Homo sapiens, UniProt Q99572); design: hP2X7 (IC50; nM); other: hP2X7; HEK-293 cells stably transfected with P2X7 receptor, Bz-ATP at EC80, Fluo-8 NW; potency; conditions: hP2X7; HEK-293 cells stably transfected with P2X7 receptor, Bz-ATP at EC80, Fluo-8 NW; potency ranges A-D
T1 sequence (Q99572 1-595): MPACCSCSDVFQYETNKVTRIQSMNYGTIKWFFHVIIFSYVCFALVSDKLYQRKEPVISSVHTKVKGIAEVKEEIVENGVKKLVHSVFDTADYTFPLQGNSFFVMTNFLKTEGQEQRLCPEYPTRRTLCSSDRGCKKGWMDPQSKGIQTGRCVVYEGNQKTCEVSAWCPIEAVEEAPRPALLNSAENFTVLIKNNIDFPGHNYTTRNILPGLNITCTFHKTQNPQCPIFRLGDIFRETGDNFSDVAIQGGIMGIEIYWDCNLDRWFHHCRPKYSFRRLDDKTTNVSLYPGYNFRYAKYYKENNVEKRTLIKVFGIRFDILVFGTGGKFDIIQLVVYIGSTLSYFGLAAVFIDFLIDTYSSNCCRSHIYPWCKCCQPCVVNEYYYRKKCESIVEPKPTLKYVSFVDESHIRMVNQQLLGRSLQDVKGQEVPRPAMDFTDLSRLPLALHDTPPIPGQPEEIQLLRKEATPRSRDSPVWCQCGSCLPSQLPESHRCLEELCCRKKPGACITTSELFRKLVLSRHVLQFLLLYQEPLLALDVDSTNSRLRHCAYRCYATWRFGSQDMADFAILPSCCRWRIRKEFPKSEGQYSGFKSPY
Procedure, shortened: (§1)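 Compounds were added to Fluo-8-loaded P2X7-transfected HEK-293 cells 5 min before an EC80 Bz-ATP challenge, and Ca2+ influx was then recorded for 3 min. Buffer held 0.3 mM Ca2+ and no Mg2+. Inhibition was normalised to A438079, giving IC50 values.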

P2X7 receptor [2] = target: T2, P2X7 receptor (Mus musculus, UniProt Q9Z1M0); conditions: mP2X7; HEK-293 cells stably transfected with P2X7 receptor, Bz-ATP at EC80, Fluo-8 NW; potency ranges A-D
T2 construct: mP2X7 (IC50; nM); other: mP2X7; HEK-293 cells stably transfected with P2X7 receptor, Bz-ATP at EC80, Fluo-8 NW; potency
T2 sequence (Q9Z1M0 1-595): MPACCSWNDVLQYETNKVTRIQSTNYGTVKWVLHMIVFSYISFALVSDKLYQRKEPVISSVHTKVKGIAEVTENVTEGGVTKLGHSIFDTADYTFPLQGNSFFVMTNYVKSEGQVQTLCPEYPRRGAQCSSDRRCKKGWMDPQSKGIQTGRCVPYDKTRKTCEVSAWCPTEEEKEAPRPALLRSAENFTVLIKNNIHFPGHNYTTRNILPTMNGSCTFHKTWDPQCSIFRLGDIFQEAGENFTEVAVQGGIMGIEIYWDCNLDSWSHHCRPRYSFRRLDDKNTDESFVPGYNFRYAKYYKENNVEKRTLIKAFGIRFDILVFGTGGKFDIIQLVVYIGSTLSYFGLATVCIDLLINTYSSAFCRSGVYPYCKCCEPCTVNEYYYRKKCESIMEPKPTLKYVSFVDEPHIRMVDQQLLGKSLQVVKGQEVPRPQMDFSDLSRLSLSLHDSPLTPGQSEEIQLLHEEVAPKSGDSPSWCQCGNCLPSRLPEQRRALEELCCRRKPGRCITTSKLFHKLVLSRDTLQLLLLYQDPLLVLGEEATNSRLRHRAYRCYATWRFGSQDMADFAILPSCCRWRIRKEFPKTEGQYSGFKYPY
Procedure, shortened: as §1

P2X7 receptor [3] = target: T3, P2X7 receptor (Rattus norvegicus, UniProt Q64663); conditions: rP2X7; HEK-293 cells stably transfected with P2X7 receptor, Bz-ATP at EC80, Fluo-8 NW; potency ranges A-D
T3 construct: rP2X7 (IC50; nM); other: rP2X7; HEK-293 cells stably transfected with P2X7 receptor, Bz-ATP at EC80, Fluo-8 NW; potency
T3 sequence (Q64663 1-595): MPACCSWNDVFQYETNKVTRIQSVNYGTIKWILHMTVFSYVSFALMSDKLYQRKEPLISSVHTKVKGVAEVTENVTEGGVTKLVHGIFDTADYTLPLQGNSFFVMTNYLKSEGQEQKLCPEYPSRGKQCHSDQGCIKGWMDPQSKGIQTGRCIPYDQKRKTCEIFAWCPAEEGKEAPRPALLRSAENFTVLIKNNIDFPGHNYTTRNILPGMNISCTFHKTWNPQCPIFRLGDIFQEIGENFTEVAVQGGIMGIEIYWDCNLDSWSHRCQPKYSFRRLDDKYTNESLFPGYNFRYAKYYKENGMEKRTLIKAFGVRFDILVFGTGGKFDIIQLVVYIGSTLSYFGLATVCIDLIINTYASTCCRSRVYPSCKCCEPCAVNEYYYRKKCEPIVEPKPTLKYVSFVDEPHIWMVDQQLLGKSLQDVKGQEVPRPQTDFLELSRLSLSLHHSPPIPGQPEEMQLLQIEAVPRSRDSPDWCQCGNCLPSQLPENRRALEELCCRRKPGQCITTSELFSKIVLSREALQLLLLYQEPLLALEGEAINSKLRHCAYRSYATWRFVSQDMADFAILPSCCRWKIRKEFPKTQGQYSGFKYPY
Procedure, shortened: as §1

Compound | IC50 (P2X7 receptor [1]) [nM] | IC50 (P2X7 receptor [2]) [nM] | IC50 (P2X7 receptor [3]) [nM]
O=c1onc(CC2CCC(F)(F)CC2)n1Cn1ccc(C(F)(F)F)n1 [Example 198, 3-[(4,4-difluorocyclohexyl)methyl]-4-{[3-(trifluoromethyl)-1H-pyrazol-1-yl]methyl}-1,2,4-oxadiazol-5(4H)-one] | > 10000 | 1000 to 10000 | 1000 to 10000
O=c1snc(CC2CCC(F)(F)CC2)n1Cc1c(F)cccc1Cl [Example 203, 4-[(2-chloro-6-fluorophenyl)methyl]-3-[(4,4-difluorocyclohexyl)methyl]-4,5-dihydro-1,2,4-thiadiazol-5-one] | < 200 | < 200 | < 200
O=c1onc(CC2CCC(F)(F)C2)n1Cc1ccc(F)cc1 (stereo not drawn) [Example 204, 3-[(3,3-difluorocyclopentyl)methyl]-4-[(4-fluorophenyl)methyl]-4,5-dihydro-1,2,4-oxadiazol-5-one] | > 10000 | > 10000 | > 10000
O=c1onc(CC2CCC(F)(F)C2)n1Cc1c(F)cccc1Cl (stereo not drawn) [Example 205, 4-[(2-chloro-6-fluorophenyl)methyl]-3-[(3,3-difluorocyclopentyl)methyl]-4,5-dihydro-1,2,4-oxadiazol-5-one] | < 200 | 200 to 1000 | < 200
Cc1noc(C)c1Cc1noc(=O)n1Cc1ccc(F)cc1 [Example 208, 3-[(dimethyl-1,2-oxazol-4-yl)methyl]-4-[(4-fluorophenyl)methyl]-4,5-dihydro-1,2,4-oxadiazol-5-one] | 1000 to 10000 | > 10000 | 1000 to 10000
Cc1noc(C)c1Cc1noc(=O)n1Cc1c(F)cccc1Cl [Example 209, 4-[(2-chloro-6-fluorophenyl)methyl]-3-[(dimethyl-1,2-oxazol-4-yl)methyl]-4,5-dihydro-1,2,4-oxadiazol-5-one] | 1000 to 10000 | > 10000 | > 10000
Cc1nn(C)c(C)c1Cc1noc(=O)n1Cc1ccc(F)cc1 [Example 212, 4-[(4-fluorophenyl)methyl]-3-[(trimethyl-1H-pyrazol-4-yl)methyl]-4,5-dihydro-1,2,4-oxadiazol-5-one] | 1000 to 10000 | > 10000 | > 10000
Cc1nn(C)c(C)c1Cc1noc(=O)n1Cc1c(F)cccc1Cl [Example 213, 4-[(2-chloro-6-fluorophenyl)methyl]-3-[(trimethyl-1H-pyrazol-4-yl)methyl]-4,5-dihydro-1,2,4-oxadiazol-5-one] | 1000 to 10000 | > 10000 | > 10000
O=c1onc(CN2CCC(F)(F)CC2)n1Cc1c(F)cccc1Cl [Example 220, 4-[(2-chloro-6-fluorophenyl)methyl]-3-[(4,4-difluoropiperidin-1-yl)methyl]-4,5-dihydro-1,2,4-oxadiazol-5-one] | < 200 | 200 to 1000 | < 200
O=c1onc(CN2CCC(F)(F)CC2)n1Cc1ccc(F)cc1 [Example 221, 3-[(4,4-difluoropiperidin-1-yl)methyl]-4-[(4-fluorophenyl)methyl]-4,5-dihydro-1,2,4-oxadiazol-5-one] | > 10000 | 1000 to 10000 | 1000 to 10000
O=c1onc(CN2CCC(F)(F)CC2)n1CC1CCC(F)(F)CC1 [Example 223, 4-[(4,4-difluorocyclohexyl)methyl]-3-[(4,4-difluoropiperidin-1-yl)methyl]-4,5-dihydro-1,2,4-oxadiazol-5-one] | > 10000 | > 10000 | > 10000

The next lines start with the values.

IC50 (P2X7 receptor [1]) [nM] | IC50 (P2X7 receptor [2]) [nM] | IC50 (P2X7 receptor [3]) [nM] | Compound
> 10000 | 1000 to 10000 | 1000 to 10000 | O=c1onc(CC2CCC(F)(F)CC2)n1Cc1ccno1 [Example 199, 3-[(4,4-difluorocyclohexyl)methyl]-4-[(1,2-oxazol-5-yl)methyl]-1,2,4-oxadiazol-5(4H)-one]
200 to 1000 | 200 to 1000 | 200 to 1000 | Cc1ncsc1Cn1c(CC2CCC(F)(F)CC2)noc1=O [Example 200, 3-[(4,4-difluorocyclohexyl)methyl]-4-[(4-methyl-1,3-thiazol-5-yl)methyl]-1,2,4-oxadiazol-5(4H)-one]
> 10000 | > 10000 | 1000 to 10000 | Cn1ccnc1Cn1c(CC2CCC(F)(F)CC2)noc1=O [Example 201, 3-[(4,4-difluorocyclohexyl)methyl]-4-[(1-methyl-1H-imidazol-2-yl)methyl]-4,5-dihydro-1,2,4-oxadiazol-5-one]
< 200 | 1000 to 10000 | 200 to 1000 | Cc1nn(C)c(C)c1Cc1noc(=O)n1CC1CCCCC1 [Example 214, 4-(cyclohexylmethyl)-3-[(trimethyl-1H-pyrazol-4-yl)methyl]-4,5-dihydro-1,2,4-oxadiazol-5-one]
< 200 | 1000 to 10000 | 200 to 1000 | Cc1nn(C)c(C)c1Cc1noc(=O)n1CC1CCC(F)(F)CC1 [Example 215, 4-[(4,4-difluorocyclohexyl)methyl]-3-[(trimethyl-1H-pyrazol-4-yl)methyl]-4,5-dihydro-1,2,4-oxadiazol-5-one]
1000 to 10000 | > 10000 | 1000 to 10000 | Cc1ncccc1Cc1noc(=O)n1Cc1ccc(F)cc1 [Example 216, 4-[(4-fluorophenyl)methyl]-3-[(2-methylpyridin-3-yl)methyl]-4,5-dihydro-1,2,4-oxadiazol-5-one]
> 10000 | > 10000 | > 10000 | Cc1ncccc1Cc1noc(=O)n1Cc1c(F)cccc1Cl [Example 217, 4-[(2-chloro-6-fluorophenyl)methyl]-3-[(2-methylpyridin-3-yl)methyl]-4,5-dihydro-1,2,4-oxadiazol-5-one]
200 to 1000 | 1000 to 10000 | 200 to 1000 | Cc1ncccc1Cc1noc(=O)n1CC1CCCCC1 [Example 218, 4-(cyclohexylmethyl)-3-[(2-methylpyridin-3-yl)methyl]-4,5-dihydro-1,2,4-oxadiazol-5-one]
200 to 1000 | 1000 to 10000 | 1000 to 10000 | Cc1ncccc1Cc1noc(=O)n1CC1CCC(F)(F)CC1 [Example 219, 4-[(4,4-difluorocyclohexyl)methyl]-3-[(2-methylpyridin-3-yl)methyl]-4,5-dihydro-1,2,4-oxadiazol-5-one]
> 10000 | 1000 to 10000 | 1000 to 10000 | O=c1onc(CN2CCC(F)(F)CC2)n1CC1CCCCC1 [Example 222, 4-(cyclohexylmethyl)-3-[(4,4-difluoropiperidin-1-yl)methyl]-4,5-dihydro-1,2,4-oxadiazol-5-one]
